What was measured:
OVCAR-3 = experiment: Cytotoxicity against human OVCAR3 cells assessed as cell growth at 100 uM after 48 hrs by sulforhodamine B assay relative to control; type: functional; conditions: OVCAR-3, 48 h, read-out: Activity
SK-OV-3 [1] = experiment: Cytotoxicity against human SKOV3 cells assessed as cell growth at 10 uM after 48 hrs by sulforhodamine B assay relative to control; type: functional; conditions: SK-OV-3, 48 h, read-out: Activity
NCI-H460 [2] = experiment: Cytotoxicity against human NCI-H460 cells assessed as cell growth at 1 uM after 48 hrs by sulforhodamine B assay relative to control; type: functional; conditions: NCI-H460, 48 h, read-out: Activity
OVCAR-4 [3] = experiment: Cytotoxicity against human OVCAR4 cells assessed as cell growth at 0.01 uM after 48 hrs by sulforhodamine B assay relative to control; type: functional; conditions: OVCAR-4, 48 h, read-out: Activity
TK-10 = experiment: Cytotoxicity against human TK10 cells assessed as cell growth at 0.01 uM after 48 hrs by sulforhodamine B assay relative to control; type: functional; conditions: TK-10, 48 h, read-out: Activity
OVCAR-5 = experiment: Cytotoxicity against human OVCAR5 cells assessed as cell growth at 100 uM after 48 hrs by sulforhodamine B assay relative to control; type: functional; conditions: OVCAR-5, 48 h, read-out: Activity
A549 [4] = experiment: Cytotoxicity against human A549/ATCC cells assessed as cell growth at 1 uM after 48 hrs by sulforhodamine B assay relative to control; type: functional; conditions: A549, 48 h, read-out: Activity
SF-539 = experiment: Cytotoxicity against human SF539 cells assessed as cell growth at 10 uM after 48 hrs by sulforhodamine B assay relative to control; type: functional; conditions: SF-539, 48 h, read-out: Activity
HL-60(TB) = experiment: Cytotoxicity against human HL-60(TB) cells assessed as cell growth at 0.01 uM after 48 hrs by sulforhodamine B assay relative to control; type: functional; conditions: HL-60, 48 h, read-out: Activity
MDA-MB-231 [5] = experiment: Cytotoxicity against human MDA-MB-231 cells assessed as growth inhibition after 48 hrs by sulforhodamine B assay; type: functional; conditions: MDA-MB-231, 48 h
SF-268 [6] = experiment: Cytotoxicity against human SF268 cells assessed as growth inhibition after 48 hrs by sulforhodamine B assay; type: functional; conditions: SF-268, 48 h; for CC50: read-out: LC50 (the source's name)
A549 [7] = experiment: Cytotoxicity against human A549/ATCC cells assessed as cell growth at 100 uM after 48 hrs by sulforhodamine B assay relative to control; type: functional; conditions: A549, 48 h, read-out: Activity
HCT-116 = experiment: Cytotoxicity against human HCT116 cells assessed as cell growth at 100 uM after 48 hrs by sulforhodamine B assay relative to control; type: functional; conditions: HCT-116, 48 h, read-out: Activity
MDA-MB-231 [8] = experiment: Cytotoxicity against human MDA-MB-231 cells assessed as cell growth at 1 uM after 48 hrs by sulforhodamine B assay relative to control; type: functional; conditions: MDA-MB-231, 48 h, read-out: Activity
RXF 393 = experiment: Cytotoxicity against human RXF393 cells assessed as cell growth at 100 uM after 48 hrs by sulforhodamine B assay relative to control; type: functional; conditions: RXF 393, 48 h, read-out: Activity
Malme-3M = experiment: Cytotoxicity against human MALME-3M cells assessed as cell growth at 100 uM after 48 hrs by sulforhodamine B assay relative to control; type: functional; conditions: read-out: Activity
HOP-62 = experiment: Cytotoxicity against human HOP62 cells assessed as cell growth at 0.1 uM after 48 hrs by sulforhodamine B assay relative to control; type: functional; conditions: HOP-62, 48 h, read-out: Activity
MDA-MB-468 [9] = experiment: Cytotoxicity against human MDA-MB-468 cells assessed as cell growth at 0.1 uM after 48 hrs by sulforhodamine B assay relative to control; type: functional; conditions: MDA-MB-468, 48 h, read-out: Activity
T47D [10] = experiment: Cytotoxicity against human T47D cells assessed as growth inhibition after 48 hrs by sulforhodamine B assay; type: functional
MDA-MB-468 [11] = experiment: Cytotoxicity against human MDA-MB-468 cells assessed as cell growth at 100 uM after 48 hrs by sulforhodamine B assay relative to control; type: functional; conditions: MDA-MB-468, 48 h, read-out: Activity
MDA-MB-231 [12] = experiment: Cytotoxicity against human MDA-MB-231 cells assessed as growth inhibition after 48 hrs by MTT assay; type: functional, cell-based; conditions: MDA-MB-231, 48 h
SF-268 [13] = experiment: Cytotoxicity against human SF268 cells assessed as cell growth at 1 uM after 48 hrs by sulforhodamine B assay relative to control; type: functional; conditions: SF-268, 48 h, read-out: Activity
SW-620 = experiment: Cytotoxicity against human SW620 cells assessed as cell growth at 1 uM after 48 hrs by sulforhodamine B assay relative to control; type: functional; conditions: SW-620, 48 h, read-out: Activity
NCI-H23 = experiment: Cytotoxicity against human NCI-H23 cells assessed as cell growth at 0.01 uM after 48 hrs by sulforhodamine B assay relative to control; type: functional; conditions: NCI-H23, 48 h, read-out: Activity
NCI-H460 [14] = experiment: Cytotoxicity against human NCI-H460 cells assessed as cell growth at 100 uM after 48 hrs by sulforhodamine B assay relative to control; type: functional; conditions: NCI-H460, 48 h, read-out: Activity
UACC-257 = experiment: Cytotoxicity against human UACC257 cells assessed as cell growth at 0.1 uM after 48 hrs by sulforhodamine B assay relative to control; type: functional; conditions: UACC-257, 48 h, read-out: Activity
MDA-MB-435 = experiment: Cytotoxicity against human MDA-MB-435 cells assessed as growth inhibition after 48 hrs by sulforhodamine B assay; type: functional; conditions: MDA-MB-435, 48 h
SNB-19 = experiment: Cytotoxicity against human SNB19 cells assessed as cell growth at 100 uM after 48 hrs by sulforhodamine B assay relative to control; type: functional; conditions: SNB-19, 48 h, read-out: Activity
MDA-MB-231 [15] = experiment: Cytotoxicity against human MDA-MB-231 cells assessed as cell growth at 0.01 uM after 48 hrs by sulforhodamine B assay relative to control; type: functional; conditions: MDA-MB-231, 48 h, read-out: Activity
OVCAR-4 [16] = experiment: Cytotoxicity against human OVCAR4 cells assessed as cell growth at 1 uM after 48 hrs by sulforhodamine B assay relative to control; type: functional; conditions: OVCAR-4, 48 h, read-out: Activity
COLO 205 [17] = experiment: Cytotoxicity against human COLO205 cells assessed as cell growth at 1 uM after 48 hrs by sulforhodamine B assay relative to control; type: functional; conditions: COLO 205, 48 h, read-out: Activity
KM12 = experiment: Cytotoxicity against human KM12 cells assessed as cell growth at 0.01 uM after 48 hrs by sulforhodamine B assay relative to control; type: functional; conditions: KM12, 48 h, read-out: Activity
ACHN = experiment: Cytotoxicity against human ACHN cells assessed as cell growth at 1 uM after 48 hrs by sulforhodamine B assay relative to control; type: functional; conditions: read-out: Activity
COLO 205 [18] = experiment: Cytotoxicity against human COLO205 cells assessed as cell growth at 0.01 uM after 48 hrs by sulforhodamine B assay relative to control; type: functional; conditions: COLO 205, 48 h, read-out: Activity
SK-OV-3 [19] = experiment: Cytotoxicity against human SKOV3 cells assessed as cell growth at 100 uM after 48 hrs by sulforhodamine B assay relative to control; type: functional; conditions: SK-OV-3, 48 h, read-out: Activity
T47D [20] = experiment: Cytotoxicity against human T47D cells assessed as cell growth at 0.1 uM after 48 hrs by sulforhodamine B assay relative to control; type: functional; conditions: read-out: Activity

Row | SMILES | growth at 100 µM (OVCAR-3) | growth at 10 µM (SK-OV-3 [1]) | growth at 1 µM (NCI-H460 [2]) | growth at 0.01 µM (OVCAR-4 [3]) | growth at 0.01 µM (TK-10) | growth at 100 µM (OVCAR-5) | growth at 1 µM (A549 [4]) | growth at 10 µM (SF-539) | growth at 0.01 µM (HL-60(TB)) | TGI (MDA-MB-231 [5]) | TGI (SF-268 [6]) | CC50 (SF-268 [6]) | growth at 100 µM (A549 [7]) | growth at 100 µM (HCT-116) | growth at 1 µM (MDA-MB-231 [8]) | growth at 100 µM (RXF 393) | growth at 100 µM (Malme-3M) | growth at 0.1 µM (HOP-62) | growth at 0.1 µM (MDA-MB-468 [9]) | TGI (T47D [10]) | also measured
1 | COc1ccc(C(=O)/C=C/c2cc(-c3ccc(OC)c(OC)c3)n[nH]2)cc1OC | -64% | 9% | 36% | 106% | 98% | -41% | 77% | -51% | 101% | 6.38 µM | 9.82 µM | > 100 µM | -19% | -45% | 76% | -90% | -11% | 84% | 80% | 6.65 µM | GI50 (MDA-MB-231 [5]): 1.88 µM; GI50 (SF-268 [6]): 2.09 µM; GI50 (T47D [10]): 1.36 µM; growth at 100 µM (MDA-MB-468 [11]): -64%; IC50 (MDA-MB-231 [12]): 1.1 µM; growth at 1 µM (SF-268 [13]): 74%; growth at 1 µM (SW-620): 66%; growth at 0.01 µM (NCI-H23): 101%; growth at 100 µM (NCI-H460 [14]): -42%; growth at 0.1 µM (UACC-257): 94%; GI50 (MDA-MB-435): 1.72 µM; growth at 100 µM (SNB-19): -36%; growth at 0.01 µM (MDA-MB-231 [15]): 108%; growth at 1 µM (OVCAR-4 [16]): 72%; growth at 1 µM (COLO 205 [17]): 82%; growth at 0.01 µM (KM12): 102%; growth at 1 µM (ACHN): 76%; growth at 0.01 µM (COLO 205 [18]): 90%; growth at 100 µM (SK-OV-3 [19]): -8%; growth at 0.1 µM (T47D [20]): 86%
2 | COc1cc(C(=O)/C=C/c2cc(-c3cc(OC)c(OC)c(OC)c3)n[nH]2)cc(OC)c1OC | -98% | 5% | 89% | 95% | 99% | -72% | 84% | -80% | 112% | 3.8 µM | 4.58 µM | 14.2 µM | -66% | -88% | 73% | -98% | -94% | 94% | 84% | 2.57 µM | LC50 (MDA-MB-231 [5]): 9.51 µM; LC50 (T47D [10]): 5.86 µM; growth at 100 µM (MDA-MB-468 [11]): -91%; IC50 (MDA-MB-231 [12]): 0.7 µM; growth at 1 µM (SF-268 [13]): 89%; growth at 1 µM (SW-620): 85%; growth at 0.01 µM (NCI-H23): 100%; growth at 100 µM (NCI-H460 [14]): -55%; growth at 0.1 µM (UACC-257): 91%; LC50 (MDA-MB-435): 5.82 µM; TGI (MDA-MB-435): 2.95 µM; growth at 100 µM (SNB-19): -98%; growth at 0.01 µM (MDA-MB-231 [15]): 110%; growth at 1 µM (OVCAR-4 [16]): 79%; growth at 1 µM (COLO 205 [17]): 98%; growth at 0.01 µM (KM12): 101%; growth at 1 µM (ACHN): 89%; growth at 0.01 µM (COLO 205 [18]): 103%; growth at 100 µM (SK-OV-3 [19]): -100%; growth at 0.1 µM (T47D [20]): 92%
